This data set concerns the target T1, hERG ion channel (Homo sapiens, UniProt Q12809).
T1 construct: expressed in transfected cells
The data set is described as follows: Inhibition of hERG ion channel (whole-cell patch clamp, HEK293 cells). In kind it is cell-based. Particulars: compound 10 µM, room temperature. As to the method: Example 58: Inhibition of hERG Ion Channel by Compounds
The hERG ion channel was stably expressed in HEK293 cells.
The test sample was dissolved in dimethyl sulfoxide (DMSO) to prepare a 9 mM stock solution, which was stored in a -20 °C freezer. On the testing day, the stock solution was further dissolved in the extracellular fluid to achieve the required concentrations. The concentration for electrophysiological test was 10 µM.
The extracellular fluid (mM) was: sodium chloride, 137; potassium chloride, 4; calcium chloride, 1.8; magnesium chloride, 1; HEPES, 10; glucose, 10. The pH was adjusted to 7.34 with sodium hydroxide. The extracellular fluid was stored at 2-8 °C.
The intracellular fluid (mM) was: potassium aspartate, 130; magnesium chloride, 5; ethylene glycol tetraacetic acid (EGTA), 5; N-2-hydroxyethylpiperazine-N'-2-ethanesulfonic acid (HEPES), 10. […]
For administration of the test samples, perfusion was carried out using a perfusion system utilizing the gravity of one's own. […] The mean of the peak current amplitudes recorded for the last three times during the initial recording served as the current peak of the negative control. After the initial current was stable, the test samples were administered starting from a low concentration until three recorded peak currents were again stable or the peak currents were "constant" after and before continuous administration for 5 min. […]

These results are taken from patent EP4772510A2, “BENZAZEPINONE COMPOUND AND USE THEREOF” (HANGZHOU BIO-SINCERITY PHARMA-TECHCO., LTD., priority 2023, dated 2025).

T1 sequence (Q12809 whole entry): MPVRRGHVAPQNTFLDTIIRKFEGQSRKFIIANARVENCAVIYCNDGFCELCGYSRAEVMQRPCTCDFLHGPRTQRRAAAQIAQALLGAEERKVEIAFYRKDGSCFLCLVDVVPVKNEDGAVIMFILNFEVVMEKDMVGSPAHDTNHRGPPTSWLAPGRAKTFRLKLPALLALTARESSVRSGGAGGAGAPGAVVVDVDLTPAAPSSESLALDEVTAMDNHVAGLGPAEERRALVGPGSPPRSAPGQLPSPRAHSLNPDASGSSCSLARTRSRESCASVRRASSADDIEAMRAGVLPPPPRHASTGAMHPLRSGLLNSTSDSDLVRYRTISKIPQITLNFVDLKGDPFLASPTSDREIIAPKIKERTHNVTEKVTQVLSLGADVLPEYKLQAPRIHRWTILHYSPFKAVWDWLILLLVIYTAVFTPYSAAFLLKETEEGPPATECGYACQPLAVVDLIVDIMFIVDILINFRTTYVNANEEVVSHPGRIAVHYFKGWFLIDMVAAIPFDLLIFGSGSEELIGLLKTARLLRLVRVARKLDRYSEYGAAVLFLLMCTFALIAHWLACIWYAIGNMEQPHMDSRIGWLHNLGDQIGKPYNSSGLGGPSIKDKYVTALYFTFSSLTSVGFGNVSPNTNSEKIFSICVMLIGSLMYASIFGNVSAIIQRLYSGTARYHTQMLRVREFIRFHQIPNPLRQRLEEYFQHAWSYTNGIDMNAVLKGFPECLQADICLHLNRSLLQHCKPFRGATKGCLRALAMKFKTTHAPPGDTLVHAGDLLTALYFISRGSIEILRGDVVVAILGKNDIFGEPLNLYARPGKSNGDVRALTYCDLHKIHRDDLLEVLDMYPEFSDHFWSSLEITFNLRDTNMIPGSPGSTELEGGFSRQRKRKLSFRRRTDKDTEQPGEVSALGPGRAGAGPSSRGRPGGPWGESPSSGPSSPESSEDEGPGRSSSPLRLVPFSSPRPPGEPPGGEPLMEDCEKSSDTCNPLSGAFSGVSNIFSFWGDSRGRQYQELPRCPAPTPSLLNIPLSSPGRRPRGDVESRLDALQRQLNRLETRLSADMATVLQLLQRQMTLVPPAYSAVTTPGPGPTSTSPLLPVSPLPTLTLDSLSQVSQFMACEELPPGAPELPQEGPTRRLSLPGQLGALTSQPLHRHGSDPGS

Take `O=C(NC1CCc2cc(C#Cc3cnn(C(F)F)c3)cc3c2N(CC3)C1=O)c1ncn(Cc2c(F)cccc2F)n1` (centres unmarked) [III-17, 1-(2,6-difluorobenzyl)-N-(9-((1-(difluoromethyl)-1H-pyrazol-4-yl)ethynyl)-4-oxo-1,2,3,4,6,7-hexahydroazepino[3,2,1-hi]indol-3-yl)-1H-1,2,4-triazole-3-carboxamide]: the “Percentage blocking rate of hERG channel” value is 38.89%.

In the case of “N-(9-((1-(difluoromethyl)-1H-pyrazol-4-yl)ethynyl)-4-oxo-1,2,3,4,6,7-hexahydroazepino[3,2,1-hi]indol-3-yl)-1-(4-methylbenzyl)-1H-1,2,4-triazole-3-carboxamide [III-25]”, the “Percentage blocking rate of hERG channel” value amounted to 39.58%.
